Reference: PubChem BioAssay (NCI)
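Here, GI50 denotes the concentration required for 50% inhibition of growth. TGI denotes the concentration required for complete inhibition of growth.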

Assays:
Assay in all cases: DTP human tumour cell line panel, 384-well format
HOP-62 NSCLC = test system: HOP-62 NSCLC
SNB-19 CNS = test system: SNB-19 CNS
HL-60(TB) leukemia = test system: HL-60(TB) leukemia
UACC-62 melanoma = test system: UACC-62 melanoma
SK-MEL-28 melanoma = test system: SK-MEL-28 melanoma
A498 renal = test system: A498 renal
NCI/ADR-RES ovarian = test system: NCI/ADR-RES ovarian
ACHN renal = test system: ACHN renal
SK-OV-3 ovarian = test system: SK-OV-3 ovarian
OVCAR-3 ovarian = test system: OVCAR-3 ovarian
SN12C renal = test system: SN12C renal
NCI-H522 lung = test system: NCI-H522 lung
M14 melanoma = test system: M14 melanoma
RPMI-8226 leukemia = test system: RPMI-8226 leukemia
EKVX NSCLC = test system: EKVX NSCLC
CCRF-CEM leukemia = test system: CCRF-CEM leukemia
CAKI-1 renal = test system: CAKI-1 renal
HOP-92 NSCLC = test system: HOP-92 NSCLC
SK-MEL-2 melanoma = test system: SK-MEL-2 melanoma
NCI-H226 lung = test system: NCI-H226 lung
RXF 393 renal = test system: RXF 393 renal
MDA-MB-468 breast = test system: MDA-MB-468 breast
NCI-H322M lung = test system: NCI-H322M lung
SF-268 CNS = test system: SF-268 CNS
OVCAR-8 ovarian = test system: OVCAR-8 ovarian
NCI-H23 lung = test system: NCI-H23 lung
K-562 leukemia = test system: K-562 leukemia
DU-145 prostate = test system: DU-145 prostate
SK-MEL-5 melanoma = test system: SK-MEL-5 melanoma
COLO 205 colon = test system: COLO 205 colon
UACC-257 melanoma = test system: UACC-257 melanoma
SNB-75 CNS = test system: SNB-75 CNS
MDA-MB-435 melanoma = test system: MDA-MB-435 melanoma
OVCAR-4 ovarian = test system: OVCAR-4 ovarian
SF-539 CNS = test system: SF-539 CNS
MCF7 breast = test system: MCF7 breast
NCI-H460 NSCLC = test system: NCI-H460 NSCLC
HCC-2998 colon = test system: HCC-2998 colon
HCT-15 colon = test system: HCT-15 colon
PC-3 prostate = test system: PC-3 prostate
SW-620 colon = test system: SW-620 colon
786-0 renal = test system: 786-0 renal
MOLT-4 leukemia = test system: MOLT-4 leukemia
SF-295 CNS = test system: SF-295 CNS
A549 NSCLC = test system: A549 NSCLC
MALME-3M melanoma = test system: MALME-3M melanoma
KM12 colon = test system: KM12 colon
HT29 colon = test system: HT29 colon
HS 578T breast = test system: HS 578T breast
BT-549 breast = test system: BT-549 breast
IGROV1 ovarian = test system: IGROV1 ovarian
HCT-116 colon = test system: HCT-116 colon
TK-10 renal = test system: TK-10 renal
U251 glioblastoma = test system: U251 glioblastoma
LOX IMVI melanoma = test system: LOX IMVI melanoma

C=C(c1ccc(N(C)C)cc1)c1ccc(N(C)C)cc1 gave a GI50 (HOP-62 NSCLC) of 2.2 µM, a TGI (HOP-62 NSCLC) of 7.98 µM and a GI50 (SNB-19 CNS) of 2.92 µM. For the same compound, the TGI (SNB-19 CNS) was 20.5 µM, the GI50 (HL-60(TB) leukemia) was 0.382 µM and the TGI (HL-60(TB) leukemia) was 1.87 µM. It also gave a GI50 (UACC-62 melanoma) of 1.52 µM, a TGI (UACC-62 melanoma) of 7.92 µM and a GI50 (SK-MEL-28 melanoma) of 2.59 µM. It also gave a TGI (SK-MEL-28 melanoma) of 7.79 µM, a GI50 (A498 renal) of 2.1 µM and a TGI (A498 renal) of 7.73 µM. It also gave a GI50 (NCI/ADR-RES ovarian) of 1.43 µM, a TGI (NCI/ADR-RES ovarian) of 3.12 µM and a GI50 (ACHN renal) of 4.16 µM. It also gave a TGI (ACHN renal) greater than 100 µM, a GI50 (SK-OV-3 ovarian) of 2.42 µM and a TGI (SK-OV-3 ovarian) of 15.1 µM. For the same compound, the GI50 (OVCAR-3 ovarian) was 1.41 µM, the TGI (OVCAR-3 ovarian) was 3.1 µM and the GI50 (SN12C renal) was 3.69 µM. It also gave a TGI (SN12C renal) of 72.6 µM, a GI50 (NCI-H522 lung) of 0.628 µM and a TGI (NCI-H522 lung) of 2.17 µM. The GI50 (M14 melanoma) was 1.39 µM, the TGI (M14 melanoma) was 3.16 µM and the GI50 (RPMI-8226 leukemia) was 1.51 µM. The TGI (RPMI-8226 leukemia) was 2.89 µM, the GI50 (EKVX NSCLC) was 3.38 µM and the TGI (EKVX NSCLC) was 15.3 µM. For the same compound, the GI50 (CCRF-CEM leukemia) was 1.35 µM, the TGI (CCRF-CEM leukemia) was 2.68 µM and the GI50 (CAKI-1 renal) was 2.57 µM. It also gave a TGI (CAKI-1 renal) of 22.1 µM, a GI50 (HOP-92 NSCLC) of 2.45 µM and a TGI (HOP-92 NSCLC) of 8.34 µM. The GI50 (SK-MEL-2 melanoma) was 0.48 µM, the TGI (SK-MEL-2 melanoma) was 1.9 µM and the GI50 (NCI-H226 lung) was 4.29 µM. It also gave a TGI (NCI-H226 lung) of 26.7 µM, a GI50 (RXF 393 renal) of 1.33 µM and a TGI (RXF 393 renal) of 3.48 µM. It also gave a GI50 (MDA-MB-468 breast) of 0.142 µM, a TGI (MDA-MB-468 breast) of 0.822 µM and a GI50 (NCI-H322M lung) of 5.48 µM. It also gave a TGI (NCI-H322M lung) of 29.1 µM, a GI50 (SF-268 CNS) of 3.27 µM and a TGI (SF-268 CNS) of 15 µM. For the same compound, the GI50 (OVCAR-8 ovarian) was 2.39 µM, the TGI (OVCAR-8 ovarian) was 5.17 µM and the GI50 (NCI-H23 lung) was 1.75 µM. It also gave a TGI (NCI-H23 lung) of 4.13 µM, a GI50 (K-562 leukemia) of 1.91 µM and a TGI (K-562 leukemia) of 5.35 µM. The GI50 (DU-145 prostate) was 2.66 µM, the TGI (DU-145 prostate) was 8.38 µM and the GI50 (SK-MEL-5 melanoma) was 1.36 µM. For the same compound, the TGI (SK-MEL-5 melanoma) was 3.4 µM, the GI50 (COLO 205 colon) was 2.78 µM and the TGI (COLO 205 colon) was 7.77 µM. It also gave a GI50 (UACC-257 melanoma) of 3.31 µM, a TGI (UACC-257 melanoma) of 19.7 µM and a GI50 (SNB-75 CNS) of 1.25 µM. The TGI (SNB-75 CNS) was 5.15 µM, the GI50 (MDA-MB-435 melanoma) was 0.28 µM and the TGI (MDA-MB-435 melanoma) was 1.06 µM. It also gave a GI50 (OVCAR-4 ovarian) of 2.09 µM, a TGI (OVCAR-4 ovarian) of 9.56 µM and a GI50 (SF-539 CNS) of 1.79 µM. The TGI (SF-539 CNS) was 4.12 µM, the GI50 (MCF7 breast) was 2.16 µM and the TGI (MCF7 breast) was 8.52 µM. For the same compound, the GI50 (NCI-H460 NSCLC) was 2.28 µM, the TGI (NCI-H460 NSCLC) was 5.15 µM and the GI50 (HCC-2998 colon) was 1.12 µM. It also gave a TGI (HCC-2998 colon) of 4.84 µM, a GI50 (HCT-15 colon) of 0.373 µM and a TGI (HCT-15 colon) of 10.3 µM. For the same compound, the GI50 (PC-3 prostate) was 3.1 µM, the TGI (PC-3 prostate) was 16.1 µM and the GI50 (SW-620 colon) was 1.15 µM. The TGI (SW-620 colon) was 4.26 µM, the GI50 ([…]-0 renal) was 2.51 µM and the TGI (786-0 renal) was 8.96 µM. For the same compound, the GI50 (MOLT-4 leukemia) was 0.301 µM, the TGI (MOLT-4 leukemia) was 1.22 µM and the GI50 (SF-295 CNS) was 2.17 µM. For the same compound, the TGI (SF-295 CNS) was 5.44 µM, the GI50 (A549 NSCLC) was 4.11 µM and the TGI (A549 NSCLC) was 28.9 µM. The GI50 (MALME-3M melanoma) was 1.65 µM, the TGI (MALME-3M melanoma) was 6.03 µM and the GI50 (KM12 colon) was 1.94 µM. For the same compound, the TGI (KM12 colon) was 55.4 µM, the GI50 (HT29 colon) was 1.87 µM and the TGI (HT29 colon) was 4.79 µM. The GI50 (HS 578T breast) was 1.69 µM, the TGI (HS 578T breast) was 3.53 µM and the GI50 (BT-549 breast) was 1.49 µM. The TGI (BT-549 breast) was 4.15 µM, the GI50 (IGROV1 ovarian) was 2.36 µM and the TGI (IGROV1 ovarian) was 9.03 µM. It also gave a GI50 (HCT-116 colon) of 2.45 µM, a TGI (HCT-116 colon) of 13.1 µM and a GI50 (TK-10 renal) of 2.25 µM. For the same compound, the TGI (TK-10 renal) was 9.09 µM, the GI50 (U251 glioblastoma) was 3.48 µM and the TGI (U251 glioblastoma) was 14.4 µM. It also gave a GI50 (LOX IMVI melanoma) of 1.91 µM and a TGI (LOX IMVI melanoma) of 21.1 µM.
